Data set [1] deals with T1, human TfR1 (Homo sapiens, UniProt P02786).
T1 construct: received from Bicycle Therapeutics as His6-tagged TfR1 (a.a. 89-760) (ACROBiosystems, CD1-H5243 and TfR-C524a); His6; purchased ACROBiosystems CD1-H5243
Briefly: SPR binding of Bicycle peptides and conjugates to human TfR1. The following applies: SPR (Biacore), human TfR1 captured on SA chip, 5-point single cycle kinetics, PBS-P+ 1% DMSO pH 7.4; geometric mean; unconjugated Bicycle peptides.
Procedure: Biacore experiments were performed to determine ka (M^-1s^-1), kd (s^-1), KD (nM) values of various peptides binding to TfR1. […] SPR binding analysis was performed on Biacore T200 and Biacore 8K+ (Cytiva). Human TfR1 and randomly biotinylated cynomolgus monkey TfR1 were captured on Series S Sensor Chip SA (BR100531, Cytiva) at levels of approximately 1000 RU. Using an appropriate top concentration, Bicycle peptides were screened in a 5-point titration curve in single cycle kinetics format at 30 ml/minute. The running buffer was PBS-P^+, 1% DMSO at pH 7.4. The data was solvent-corrected for DMSO bulk effects. In addition, all data was double corrected against the reference flow cell and matched buffer blanks. Data processing and kinetic fitting were performed using Biacore T200 Evaluation Software or Biacore Insight Evaluation. The data was fitted using the 1:1 binding model or steady-state affinity model where appropriate. The geometric mean (geomean) KD (nM) for binders was calculated by transforming unique KD values by log10, arithmetic-mean-averaging the transformed values, and subsequently anti-log-transforming the averaged value.

Data set [2] can be described thus: Mouse plasma stability. It counts as in vitro ADME. The method, then:
An alanine scan was performed to identify core residues involved in binding to the protein and solvent-facing residues which could be used to tune molecular properties, followed by substitutions with non-natural amino acids to identify suitable replacements at each position. In addition, peptides were synthesized to investigate the removal of the N- and C-terminal alanines, capping the N-terminal with an acetyl group, and to examine the effects of combinations with N- and C-terminal extensions. Affinity was measured using either SPR or fluorescence polarization (FP) assays, and plasma stability in mouse was determined for selected examples. Series of analogues with the azidolysine (K(N3)) or azidopropanoic acid (AzPro) were prepared on the C- and N-terminal of the Bicycle molecules, respectively. These were used to conjugate to an ASO or siRNA for further profiling.

The results in this text go back to paper PMC11983102, “Conjugation to a transferrin receptor 1-binding Bicycle peptide enhances ASO and siRNA potency in skeletal and cardiac muscles” (Nucleic Acids Research, 2025).

Structures are written as SMILES. Numbered stars: 1 amine (or outer) side, 2 acyl side, 3 side chain; on linkers, the order of the positions; unused ones are H or OH. Bridge positions count the residues as written; N and C are the ends. Peptide text beside a SMILES is read from it. TATB = O=C(C[*:1])N1CN(C(=O)C[*:2])CN(C(=O)C[*:3])C1

T1 sequence (P02786 89-760): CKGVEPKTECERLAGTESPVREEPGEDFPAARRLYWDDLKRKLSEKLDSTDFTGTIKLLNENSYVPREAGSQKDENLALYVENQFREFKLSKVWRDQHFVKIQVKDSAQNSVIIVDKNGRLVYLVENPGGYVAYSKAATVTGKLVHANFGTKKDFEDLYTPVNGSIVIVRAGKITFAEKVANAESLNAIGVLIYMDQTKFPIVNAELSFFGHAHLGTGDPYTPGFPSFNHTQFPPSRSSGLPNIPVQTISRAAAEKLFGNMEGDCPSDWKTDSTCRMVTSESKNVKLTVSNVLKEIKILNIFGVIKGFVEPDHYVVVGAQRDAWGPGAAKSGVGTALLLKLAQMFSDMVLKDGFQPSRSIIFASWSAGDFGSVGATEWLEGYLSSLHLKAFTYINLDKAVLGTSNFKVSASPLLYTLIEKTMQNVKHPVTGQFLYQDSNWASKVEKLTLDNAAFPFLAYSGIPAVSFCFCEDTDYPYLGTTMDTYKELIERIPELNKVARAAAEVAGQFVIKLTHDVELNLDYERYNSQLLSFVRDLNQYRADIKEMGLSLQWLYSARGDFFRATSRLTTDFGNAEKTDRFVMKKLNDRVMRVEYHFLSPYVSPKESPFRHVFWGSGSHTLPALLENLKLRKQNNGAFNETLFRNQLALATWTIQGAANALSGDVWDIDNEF

Compound `CC[C@H](C)[C@@H]1NC(=O)[C@@H]2CSCC(=O)N3CN(CN(C3)C(=O)CSC[C@@H](C(=O)N[C@@H](C)C(N)=O)NC(=O)[C@H](Cc3ccc(O)cc3)NC(=O)[C@H](CO)NC1=O)C(=O)CSC[C@H](NC(=O)[C@H](C)N)C(=O)N[C@@H](CO)C(=O)N1CCC[C@H]1C(=O)N[C@@H](CC(=O)O)C(=O)N[C@@H](C)C(=O)N[C@@H](Cc1c[nH]cn1)C(=O)N[C@@H](CC(C)C)C(=O)NCC(=O)N2` [BCY15468] registered a Kd in data set [1] of 143 nM.
As to `CC[C@H](C)[C@@H]1NC(=O)[C@@H]2CSCC(=O)N3CN(CN(C3)C(=O)CSC[C@H](NC(C)=O)C(=O)N[C@@H](CO)C(=O)N3CCC[C@H]3C(=O)N[C@@H](CC(=O)O)C(=O)N[C@@H](C)C(=O)N[C@@H](Cc3c[nH]cn3)C(=O)N[C@@H](CC(C)C)C(=O)NCC(=O)N2)C(=O)CSC[C@@H](C(N)=O)NC(=O)[C@H](Cc2ccc(O)cc2)NC(=O)[C@H](CO)NC1=O` [BCY15891] (Ac-CSPDAHLGCISYC-NH2; linker 1-9-13 via TATB), the half-life in data set [2] is 22.7 h.
Consider `CC[C@H](C)[C@@H]1NC(=O)[C@@H]2CSCC(=O)N3CN(CN(C3)C(=O)CSC[C@@H](C(=O)N[C@@H](C)C(N)=O)NC(=O)[C@H](Cc3cccc4ccccc34)NC(=O)[C@H](CO)NC1=O)C(=O)CSC[C@H](NC(=O)[C@H](C)N)C(=O)N[C@@H](CO)C(=O)N1CCC[C@H]1C(=O)N[C@@H](CC(=O)O)C(=O)N[C@@H](C)C(=O)N[C@@H](Cc1c[nH]cn1)C(=O)N[C@@H](CC(C)C)C(=O)NCC(=O)N2` [compound 16029], for which binding in data set [1] was put at a Kd of 60 nM.
Still for that read-out and setting: to `CC[C@H](C)[C@@H]1NC(=O)[C@@H]2CSCC(=O)N3CN(CN(C3)C(=O)CSC[C@@H](C(=O)N[C@@H](C)C(N)=O)NC(=O)[C@H](Cc3ccc4ccccc4c3)NC(=O)[C@H](CO)NC1=O)C(=O)CSC[C@H](NC(=O)[C@H](C)N)C(=O)N[C@@H](CO)C(=O)N1CCC[C@H]1C(=O)N[C@@H](CC(=O)O)C(=O)N[C@@H](C)C(=O)N[C@@H](Cc1c[nH]cn1)C(=O)N[C@@H](CC(C)C)C(=O)NCC(=O)N2` [compound 16031] belongs 68 nM; to `CC[C@H](C)[C@@H]1NC(=O)[C@@H]2CSCC(=O)N3CN(CN(C3)C(=O)CSC[C@@H](C(=O)N[C@@H](C)C(N)=O)NC(=O)[C@H](Cc3ccc(O)cc3)NC(=O)[C@H](CO)NC1=O)C(=O)CSC[C@H](NC(=O)[C@H](C)N)C(=O)N[C@@H](CO)C(=O)N1C[C@H](O)C[C@H]1C(=O)N[C@@H](CC(=O)O)C(=O)N[C@@H](C)C(=O)N[C@@H](Cc1c[nH]cn1)C(=O)N[C@@H](CC(C)C)C(=O)NCC(=O)N2` [compound 16047], 49 nM.
